# Reference: patent US8168675B2, “Compositions and methods for treating neurodegenerative diseases” (Marin Bio Co., Ltd., priority 2008, dated 2012)
# Legend:
# Assay type in all cases: in vivo
# C57BL/6 (B6) mice [1] = assay: ABR hearing threshold measurement in aged mice (presbycusis model); settings: dietary supplementation from 4 to 15 months of age, *P<0.05, n=5 vs Control
# Method: (§1) Details on the methods used to house and feed male inbred C57BL/6 (B6) mice have been described (Pugh et al., Cancer Res. 59:1642 [1999]). Briefly, Mice were divided into five groups: control, α-lipoic acid (ALA), CLA, coenzyme Q10 (CQ), and phenylalanine (PA). The compound treatment groups were fed the same caloric intake as controls, but were supplemented with ALA (150 mg/kg), CLA (5000 mg/kg), CQ (50 mg/kg), and PA (250 mg/kg) from 4 months of age until 15 months of age (FIG. 1).
# Detailed protocols for ABR measurement have been described (Yamasoba et al., Neurosci Lett. 395:18 [2005]). […] Mice were anesthetized with a mixture of xylazine hydrochloride (10 mg/kg, i.m.) and ketamine hydrochloride (40 mg/kg, i.m.). Five to seven mice per group were used for this study, and the same mice were used for the following histopathological analyses. Data were examined using the two-tailed standard t-test and were tested for statistical significance using a One Way ANOVA test (GraphPad Prisim 5.0, San Diego, Calif.). All data were reported as mean±S.E.M.
# C57BL/6 (B6) mice [2] = assay: Cochlear histopathology (hair cells and SGCs); settings: dietary supplementation from 4 to 15 months of age, HE-stained cochlear sections, Control showed severe loss
# Method: as §1
# Detailed protocols for tissue processing have been described (Someya et al., [2007], supra). Briefly, 4% paraformaldehyde-fixed and paraffin-embedded specimens were sliced into 4 μm sections, mounted on silane-coated slides, stained with Haematoxylin and Eosin (HE), and observed under a light microscope (Leica Microsystems, Bannockburn, Ill.). The Rosenthal's canal was divided into three regions: apical, middle and basal (Keithley et al., [2004], supra) and the three regions were used for evaluation of cochlear histopathology. Five mice were used for each group that were the same mice as those used in the ABR tests. Five modiolar sections obtained in every fifth section from one unilateral cochlea were evaluated per mouse. The same animals were used for spiral ganglion cell counting.
# C57BL/6 (B6) mice [3] = assay: Spiral ganglion cell counting (SGC density); settings: dietary supplementation from 4 to 15 months of age, *P<0.05, n=5
# Method: as §1
# SGCs were identified by the presence of a nucleus. The SGC density was calculated as the number of SGCs per 1 mm^2. Five sections of the unilateral apical turn were evaluated in one cochlea per mouse. Data were analyzed using the two-tailed standard t-test. All data were reported as mean±S.E.M.
Compound,hearing by ABR thresholds at 32 kHz (C57BL/6 (B6) mice [1]),loss of hair cells and SGCs in the cochleae (C57BL/6 (B6) mice [2]),mean spiral ganglion cell density vs Control mice (C57BL/6 (B6) mice [3]),hearing by ABR thresholds at 8 and 32 kHz (C57BL/6 (B6) mice [1]; 8 and 32 kHz)
"O=C(O)CCCCC1CCSS1 (stereo not drawn) [ALA, α-lipoic acid]",normal hearing,no or only a few loss,significantly higher,–
"COC1=C(OC)C(=O)C(C/C=C(\C)CC/C=C(\C)CC/C=C(\C)CC/C=C(\C)CC/C=C(\C)CC/C=C(\C)CC/C=C(\C)CC/C=C(\C)CC/C=C(\C)CCC=C(C)C)=C(C)C1=O [CQ, coenzyme Q10]",–,no or only a few loss,significantly higher,normal hearing
"N[C@@H](Cc1ccccc1)C(=O)O [PA, phenylalanine]",normal hearing,no or only a few loss,significantly higher,–
conjugated linoleic acid [CLA],normal hearing,–,–,–
